Source: paper PMC9291687
“And” between values parts separate entries of the source, which are not always exact repeats. Equal values may be shown once. “Also recorded” adds a separate entry of the source.

Key:
colon cancer (HCT-116) = test: MTT antiproliferative assay, HCT-116
Protocol: (§1) Preliminary screening against the cancer cell lines was performed, using doxorubicin as a reference drug at doses of 100 μM.
(§2) In vitro cytotoxicity was carried out using MTT assay protocol[63] as described in Supplementary data.
(§3) proliferative activity was assessed quantitatively as follows;
(§4) Human cancer cell lines were dropped in 96-well plates at a density of 3-8 × 10^3 cells/well.
(§5) growth medium was exchanged with 0.1 ml of fresh medium containing graded concentrations of the test compounds to be or equal DMSO and incubated for two days. Then 10 μl MTT solution (0.5 mg/ml) was added to each well, and the cells were incubated for additional 4 h. The crystals of MTT-formazan were dissolved in 100 μl of DMSO; the absorbance of each well was measured at 490 nm using an automatic ELISA reader system (TECAN, CHE). The IC50 values were calculated using the nonlinear regression fitting models (Graph Pad, Prism Version 5). The data represented the mean of three independent experiments in triplicate and were expressed as means
(§6) The results were expressed as growth inhibitory concentration (IC50) values and

EGFR^T790M = EGFR^T790M (Homo sapiens, UniProt P00533, T790M); test: EGFRT790M kinase inhibitory assay (HTRF)
Protocol: (§7) In vitro EGFR inhibitory activity was assessed using Homogeneous time-resolved fluorescence (HTRF) assay[64] as described in Supplementary data.
(§8) The IC50 values were calculated using the nonlinear regression fitting models (Graph Pad, Prism Version 5).
(§9) EGFRWT and EGFRT790M kinase inhibitory assay
(§10) Homogeneous time resolved fluorescence (HTRF) assay was applied in this test.
(§11) EGFRWT, EGFRT790M (Sigma). firstly, the EGFRWT and/or EGFRT790M and their substrates were incubated with the tested compounds in enzymatic buffer for 5 min.
(§12) into the reaction mixture to allow starting the enzymatic reaction. The assay was conducted for 30 min at room temperature. The reaction was stopped by addition of detection reagents which contain
(§13) GraphPad Prism 5.0. Three independent experiments were performed for each concentration.

PC-3 cells [1] = test: Cell cycle analysis by flow cytometry (PI staining); assay type: cell-based, human
breast cancer (MCF-7) = test: MTT antiproliferative assay, MCF-7; conditions: Homo sapiens, MCF7, read-out: Growth inhibition (%) MCF-7
Protocol: as §1, §2, §3, §4, §5, §6

lung cancer (A-549) = test: MTT antiproliferative assay, A-549; conditions: Homo sapiens
Protocol: as §1, §2, §3, §4, §5, §6

prostate cancer (PC-3) = test: MTT antiproliferative assay, PC-3; conditions: Homo sapiens
Protocol: as §1, §2, §3, §4, §5, §6

caspase-3 in PC-3 cells = test: Caspase-3 determination (ELISA); assay type: cell-based, human
EGFR^WT = EGFR^WT (Homo sapiens, UniProt P00533); test: EGFRWT kinase inhibitory assay (HTRF)
Protocol: as §7, §8, §9, §10, §11, §12, §13

PC-3 cells [2] = test: Annexin V-FITC/PI apoptosis assay; assay type: cell-based, human; conditions: PC-3, 7.98 µM, 24 h
Protocol: The results were depicted in (Figure 6 and Supplementary data).
The effect of compound 8a on cell apoptosis was investigated as described in Supplementary data[76–78].
4.1.3. Annexin V-FITC apoptosis assay.
To detect the apoptosis induced by compound 8a, PC-3 cells were seeded and incubated overnight […]
the negative control. After that, the cells were collected and washed with PBS two successive times. The cells were exposed to centrifugation. Apoptosis detection kit (BD Biosciences, San Jose, CA) was used in this test. According to the manufacturer's protocol the cells were stained by Annexin V-FITC and propidium iodide (PI) in the binding buffer for 20min at room temperature in the dark. Using a flow cytometer, Annexin V-FITC and PI binding were analyzed. flowjo software was used to analyze the frequencies in all quadrants.
Cell cycle distribution (%)

Sequence of EGFR^T790M (P00533 25-1210 T790M): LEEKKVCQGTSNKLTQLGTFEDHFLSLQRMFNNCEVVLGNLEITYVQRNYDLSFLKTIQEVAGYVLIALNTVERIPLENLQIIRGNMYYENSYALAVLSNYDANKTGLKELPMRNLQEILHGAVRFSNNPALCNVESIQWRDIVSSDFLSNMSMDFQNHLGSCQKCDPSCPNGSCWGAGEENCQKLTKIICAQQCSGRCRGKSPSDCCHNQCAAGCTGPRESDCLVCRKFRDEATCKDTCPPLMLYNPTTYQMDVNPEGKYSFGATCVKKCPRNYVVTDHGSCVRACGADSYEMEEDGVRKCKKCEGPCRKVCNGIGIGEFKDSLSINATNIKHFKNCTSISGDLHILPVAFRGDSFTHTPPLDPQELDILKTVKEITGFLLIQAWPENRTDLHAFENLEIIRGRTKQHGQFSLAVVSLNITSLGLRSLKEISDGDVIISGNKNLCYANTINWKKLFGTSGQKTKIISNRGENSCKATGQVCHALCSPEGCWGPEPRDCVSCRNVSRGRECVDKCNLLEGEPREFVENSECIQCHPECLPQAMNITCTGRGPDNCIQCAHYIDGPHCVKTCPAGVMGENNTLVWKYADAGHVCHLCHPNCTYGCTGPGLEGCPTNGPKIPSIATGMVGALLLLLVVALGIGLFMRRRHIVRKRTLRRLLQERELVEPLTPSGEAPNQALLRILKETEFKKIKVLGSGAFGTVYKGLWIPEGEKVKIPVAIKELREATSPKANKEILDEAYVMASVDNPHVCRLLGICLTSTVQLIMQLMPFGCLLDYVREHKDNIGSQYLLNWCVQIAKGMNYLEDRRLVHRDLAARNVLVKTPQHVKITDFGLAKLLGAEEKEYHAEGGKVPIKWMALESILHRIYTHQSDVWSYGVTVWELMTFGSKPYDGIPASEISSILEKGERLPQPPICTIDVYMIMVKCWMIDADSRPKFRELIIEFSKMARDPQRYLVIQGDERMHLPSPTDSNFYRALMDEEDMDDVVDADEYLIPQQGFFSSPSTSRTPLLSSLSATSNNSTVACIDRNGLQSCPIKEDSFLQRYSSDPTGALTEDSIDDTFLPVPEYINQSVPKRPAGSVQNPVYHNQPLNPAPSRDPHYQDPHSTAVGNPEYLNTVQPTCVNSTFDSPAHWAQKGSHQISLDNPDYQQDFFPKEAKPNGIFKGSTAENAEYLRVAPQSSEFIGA
Sequence of EGFR^WT (P00533 25-1210): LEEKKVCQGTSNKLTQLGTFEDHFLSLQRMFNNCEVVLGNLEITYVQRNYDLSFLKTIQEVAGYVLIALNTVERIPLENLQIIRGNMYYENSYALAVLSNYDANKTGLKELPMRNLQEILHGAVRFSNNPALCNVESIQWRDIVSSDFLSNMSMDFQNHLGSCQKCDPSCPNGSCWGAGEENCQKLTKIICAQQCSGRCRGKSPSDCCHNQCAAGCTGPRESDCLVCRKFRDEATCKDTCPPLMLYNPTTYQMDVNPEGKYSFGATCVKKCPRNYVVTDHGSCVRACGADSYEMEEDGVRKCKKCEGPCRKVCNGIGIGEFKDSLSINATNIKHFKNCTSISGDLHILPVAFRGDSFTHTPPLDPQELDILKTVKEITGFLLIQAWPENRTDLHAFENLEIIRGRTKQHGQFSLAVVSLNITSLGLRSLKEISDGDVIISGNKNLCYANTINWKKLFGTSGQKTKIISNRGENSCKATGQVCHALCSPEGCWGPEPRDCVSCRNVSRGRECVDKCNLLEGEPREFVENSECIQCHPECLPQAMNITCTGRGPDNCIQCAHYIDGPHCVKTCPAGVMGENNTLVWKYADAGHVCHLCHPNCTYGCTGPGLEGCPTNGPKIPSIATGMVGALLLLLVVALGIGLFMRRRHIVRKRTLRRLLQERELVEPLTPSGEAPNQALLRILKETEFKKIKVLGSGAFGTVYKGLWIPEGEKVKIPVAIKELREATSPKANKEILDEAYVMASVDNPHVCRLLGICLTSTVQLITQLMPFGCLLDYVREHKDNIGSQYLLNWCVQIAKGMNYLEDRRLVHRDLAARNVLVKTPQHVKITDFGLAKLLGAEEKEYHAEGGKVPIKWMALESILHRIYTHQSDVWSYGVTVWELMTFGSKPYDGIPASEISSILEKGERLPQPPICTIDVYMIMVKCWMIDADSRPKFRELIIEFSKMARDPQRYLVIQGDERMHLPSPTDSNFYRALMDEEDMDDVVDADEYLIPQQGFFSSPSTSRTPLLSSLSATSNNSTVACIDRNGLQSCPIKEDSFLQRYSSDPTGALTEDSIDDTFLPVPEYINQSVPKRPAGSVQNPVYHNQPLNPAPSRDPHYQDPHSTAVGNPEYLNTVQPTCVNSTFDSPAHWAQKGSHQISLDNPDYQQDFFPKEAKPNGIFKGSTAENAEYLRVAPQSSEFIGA

IC50 (colon cancer (HCT-116); Homo sapiens, HCT-116, read-out: IC50 HCT-116): 25.6 ± 1.3 µM
IC50 (EGFR^T790M): 0.123 ± 0.01 µM
IC50 (lung cancer (A-549); A549, read-out: IC50 A-549, MTT, mean of at least three experiments): 16.2 ± 2.4 µM
IC50 (prostate cancer (PC-3); read-out: IC50 PC-3): 7.98 ± 2.4 µM
IC50 (EGFR^WT): 0.099 ± 0.007 µM
SMILES: Cc1ccc(-c2cc(-c3ccc(Cl)cc3)nc3nc4[nH]c5ccccc5c(=O)n4c(=O)c23)cc1 [Compound 8a, 2–(4-Chlorophenyl)-4-(p-tolyl)-5H-pyrido[2',3':4,5]pyrimido [2,1-b] quinazoline-5,7(12H)-dione]
inhibition at 100 µM (colon cancer (HCT-116); Homo sapiens, HCT-116, read-out: Growth inhibition (%) HCT-116): 84%
Cytotoxic activity against HCT-116 (colon cancer (HCT-116); MTT): mild cytotoxic activity
Increase of cell population at %S vs control (PC-3 cells [1]; PC-3, 7.98 µM, 24 h): 1.3 folds
Increase of cell population at pre-G1 vs control (PC-3 cells [1]; PC-3, 7.98 µM, 24 h): 22 folds
Cell cycle distribution %Pre-G1 (PC-3 cells [1]; PC-3, 7.98 µM, 24 h, control 1.78%): 41.06%
Cell cycle distribution %G2-M (PC-3 cells [1]; PC-3, 7.98 µM, 24 h, control 9.75%): 4.93%
Cell cycle distribution %S (PC-3 cells [1]; PC-3, 7.98 µM, 24 h, control 41.03%): 53.69%
Cell cycle distribution %G0-G1 (PC-3 cells [1]; PC-3, 7.98 µM, 24 h, control 49.22%): 41.38%
Cell cycle arrest phase (PC-3 cells [1]; PC-3 cells): arrested the cell cycle at pre-G1 phase; also recorded: arrest the PC-3 cell line at pre-G1; also recorded: arrested the cell cycle at the pre-G1 phase
inhibition at 100 µM (breast cancer (MCF-7)): 32%
inhibition at 100 µM (lung cancer (A-549); A549, read-out: Growth inhibition (%) A549): 90%
inhibition at 100 µM (prostate cancer (PC-3); read-out: Growth inhibition (%) PC-3): 98%
Increase in caspase-3 level vs control cells (caspase-3 in PC-3 cells; 24 h): 5.3 fold
Caspase-3 level (caspase-3 in PC-3 cells; 24 h treatment, 8a at 3.04 µM, control 84.24, mean ± SEM): 452.3 pg/mL and 452.3 ± 10.5 pg/mL
Increase in early apoptosis ratio vs control (PC-3 cells [2]): 32 fold
Increase in late apoptosis ratio vs control (PC-3 cells [2]): 150 fold
Late apoptosis (PC-3 cells [2]; control 0.15%): 22.49%
Early apoptosis (PC-3 cells [2]; control 0.43%): 13.92%
Necrosis (PC-3 cells [2]; control 1.20): 4.65%
Total apoptosis (PC-3 cells [2]; control 1.78): 41.06%
